In the oligonucleotide strings, read from the 5' end, every base follows the letter of its sugar. An asterisk marks phosphorothioate; unmarked linkages are phosphodiester. Other units and linkages are bracketed, terminal groups are in braces. A string of capitals states the bases alone. d = 2'-deoxy (DNA)
Columns and labels:
PARP [1] = assay: PARP cleavage by immunoblot in MCF7 cells; assay type: cell-based, human
Experimental: (§1) As a further measure of apoptosis, cleavage of PARP was next examined. This protein is cleaved by caspases and results in appearance of Mr 85,000 and Mr 24,000 fragments, the latter of which binds irreversibly to broken ends of DNA, which assures irreversibility of apoptosis. Both breast cancer cell lines were transfected with antisense p21 and random sequence ODNs and immunoblotted with PARP antibody. […] T47D (A) and MCF7 (B) cells were grown to confluence, serum starved for 24 hours, and lipofected with antisense p21 or control ODN at the concentrations indicated. cont refers to nontransfected cells, and lipofect refers to cells treated with lipofectin but no DNA. The cells were lysed, and equal protein quantities were electrophoresed and immunoblotted with PARP antibody. The degradation product of PARP (Mr 85,000) is indicated by an arrow. MAPK is a loading control; a positive PARP cleavage control is Jurkat whole cell lysate.

caspase-3 = assay: Caspase-3 activity (CaspACE colorimetric assay) in T47D cells; assay type: cell-based, human; details: 200 to 400 nM
Experimental: Caspase-3 Activity: The CaspACE Assay System was used to measure the activity of caspase-3. After incubation under appropriate conditions, the cells were lysed in CaspACE lysis buffer, and protein concentration was determined by dye reagent protein assay (Bio-Rad, Hercules, Calif.). […] The lysates with equal protein amounts were incubated with DEVD-p-nitroaniline substrate for 4 hours at 37° C. The reaction products were detected at 405 nm using a PowerWave X automated plate reader (Bio-Tek Instruments).
As another confirmatory test for antisense p21 ODN-mediated apoptosis, caspase-3 activation was assessed. Members of the caspase family of proteases are essential components of an evolutionarily conserved cell death pathway in multicellular eukaryotes and play key roles in inflammation and apoptosis in mammalian cells. Caspase-3 has substrate specificity for the amino acid sequence DEVD (Asp-Glu-Val-Asp) and is inhibited by the tetrapeptide inhibitor Ac-DEVD-CHO; its catalytic activity was assessed colorimetrically using the labeled Ac-DEVD-pNA substrate. […] T47D cells were grown to confluence, serum starved for 24 hours, and lipofected with antisense p21 or control ODN at the concentrations indicated. Caspase-3 activity was assessed as described in “Capase-3 Activity” using a colorimetric method. […]

PARP [2] = assay: PARP cleavage by immunoblot in T47D cells; assay type: cell-based, human
Experimental: as §1

p21^Waf1/Cip1 = assay: p21 protein level by Western blot in A10 VSM cells; assay type: cell-based, rat; details: for p21 levels after ionizing radiation: 12 Gy, up to 4 hours
Experimental: Western blots: Cells were grown to confluence in 6 cm culture dishes and serum deprived. After transfection and or treatment with appropriate agonist, the cells were washed with phosphate-buffered saline and lysed in lysis buffer and the supernatant was Western blotted as described (Weiss et al., 1998 Am. J. Physiol., 274, p. C1521-C1529).
To determine whether antisense transfection with p21^Waf1/Cip1 antisense oligonucleotides indeed decreases p21^Waf1/Cip1 protein levels, p21^Waf1/Cip1 levels after antisense transfection were examined employing the fact that PMA is a potent inducer of p21^Waf1/Cip1 (Huang et al., 1995 Proc. Natl. Acad. Sci. U.S.A., 92, p. 4793-4797; Michieli et al., 1994 Cancer Res., 54, p. 3391-3395). Since p21^Waf1/Cip1 protein levels were induced in VSM cells between 2 and 6 hours after PMA stimulation (FIG. 4), the p21^Waf1/Cip1 levels in transfected cells after similar times of PMA stimulation were examined. […] There was no effect of the p21^Waf1/Cip1 sense (SEQ. ID NO.:2) control oligodeoxynucleotide on cellular p21^Waf1/Cip1 levels (compare with FIG. 4).
To check for specificity of protein inhibition by the antisense p21^Waf1/Cip1 oligodeoxynucleotide (SEQ. ID NO.: 1), protein levels of p21^Waf1/Cip1 and p27^Kip1 after transfection with antisense p21^Waf1/Cip1 oligodeoxynucleotide (SEQ. ID NO.:1) were examined. In these experiments the ability of antisense oligodeoxynucleotides (SEQ. ID NO.:1) to inhibit maximally stimulated CKI expression (see FIG. 4) was assessed. The cells were stimulated with PMA for 4 hours at various times after overnight serum starvation.
Western blots: Cells were grown to confluence in 6 cm culture dishes and serum deprived. After transfection and or treatment with appropriate agonist, conditioned medium was removed and saved and the cells were washed with phosphate-buffered saline and lysed in lysis buffer. Both supernatant and cell lysate were normalized to the lysate protein concentrations and Western blotted as described (Weiss R H, et al. Am J Physiol 274:C1521-C1529, 1998).
To confirm that p21 levels were increased after exposure to ionizing radiation, and that the oligonucleotides inhibit this phenomenon in A10 cells, p21 protein levels under these conditions were assayed. […] With the exception of the initial decrease in p21 levels at ½ and 1 hours, the results with the control oligonucleotides were similar to that observed in non-transfected cells.
Adriamycin is a prototypical DNA damaging agent used in the treatment of a variety of cancers. The predominantly G2 arrest seen after Adriamycin treatment has been associated with an increase in p21 levels in some cell lines (Siu W Y, et al. FEBS Lett 461:299-305, 1999). In order to determine whether similar augmentation of p21 is seen in A10 VSM cells and whether the antisense p21 oligonucleotide is inhibiting this response, these cells were treated with Adriamycin either with or without first transfecting the cells with the antisense and control oligonucleotides. Confluent VSM cells were transfected with antisense oligonucleotide to p21 or random sequence control oligonucleotide as described above. After 24 hours, the cells were exposed to Adriamycin (500 ng/ml), lysed at the indicated times after exposure, and Western blotted with p21 antibody.
Using a random sequence phosphorothioate oligodeoxynucleotide (SEQ. ID NO.:3) as a control, the effect of the antisense oligodeoxynucleotide to p21 (400 nM) on p21 and α-actin protein expression in A10 VSM cells, was examined. The lysates, normalized for protein content, were Western blotted with either p21 or α-actin antibody.

Substance | PARP cleavage (Mr 85,000 product) (PARP [1]) | caspase-3 cleavage (activity) (caspase-3) | PARP cleavage (Mr 85,000 product) (PARP [2]) | p21 protein level (p21^Waf1/Cip1; A10 VSM cells, 400 nM) | p21 levels after ionizing radiation (p21^Waf1/Cip1; A10 VSM cells) | p21^Waf1/Cip1 protein after maximal stimulation with PMA (p21^Waf1/Cip1; A10 VSM cells, PMA for 4 hours) | PMA-induced p21^Waf1/Cip1 levels (p21^Waf1/Cip1; A10 VSM cells, PMA stimulation up to 6 hours after transfection) | Adriamycin-induced increase of p21 levels (p21^Waf1/Cip1; transfected VSM cells, Adriamycin 500 ng/ml)
5′-ATC-CCC-AGC-CGG-TTC-TGA-CAT-3′ (antisense ATCCCCAGCCGGTTCTGACAT; listed as DNA, chemistry not fully specified) [antisense p21 ODN] | marked PARP cleavage | marked dose-dependent caspase-3 cleavage | marked PARP cleavage |  |  |  |  | 
5′-GACATCACCAGGATCGGACAT-3′ |  |  |  | marked inhibition | consistently low | completely inhibited | significant attenuation | marked attenuation
5′-TGG ATC CGA CAT GTC AGA-3′ (dT*dG*dG*dA*dT*dC*dC*dG*dA*dC*dA*dT*dG*dT*dC*dA*dG*dA) [random sequence control oligonucleotide, reference compound] | proapoptotic effect | no change | proapoptotic effect |  | initial slight inhibition |  |  | 

Reference: patent publication US20050043262A1, “Novel specific inhibitor of the cyclin kinase inhibitor p21Waf1/Cip1 and methods of using the inhibitor” (priority 2000, published 2005)
